Experimental data reported in patent publication US11648254B2 (Kumquat Biosciences Inc., priority 2021, dated 2023).
Like-named read-outs stand apart in the source and are kept apart here.

Experiments:
SOS1 = SOS1 (Homo sapiens (Human), UniProt Q07889); experiment: Ras-SOS interaction assay (HTRF); format: biochemical
Text: The ability of any compound of the present disclosure to reduce a Ras protein signaling output by, e.g., interfering or disrupting interaction (or binding) between SOS1 and a Ras protein can be assessed in vitro. For example, the equilibrium interaction of human SOS1 (hSOS1) with human wildtype Kras or K-Ras mutant (e.g., hK-Ras G12C mutant, or hK-RasG12C) can be assessed as a proxy or an indication for a subject compound's ability to inhibit SOS. Detection of such interaction is achieved by measuring homogenous time-resolved fluorescence resonance energy transfer (HTRF) from (i) a fluorescence resonance energy transfer (FRET) donor (e.g., antiGST-Europium) that is bound to GST-tagged K-RasG12C to (ii) a FRET acceptor (e.g., anti-6His-XL665) bound to a His-tagged hSOS1.
The assay buffer can contain 5 mM HEPES pH 7.4, 150 mM NaCl, 10 mM EDTA, 1 mM DTT, 0.05% BSA, 0.0025% (v/v) Igepal and 100 mM KF. A Ras working solution is prepared in assay buffer containing typically 10 nM of the protein construct (e.g., GST-tagged hK-RasG12C) and 2 nM of the FRET donor (e.g., antiGST-Eu(K) from Cisbio, France). A SOS1 working solution is prepared in assay buffer containing typically 10 nM of the protein construct (e.g., His-hSOS1) and 10 nM of the FRET acceptor (e.g., anti-6His-XL665 from Cisbio, France). An inhibitor control solution is prepared in assay buffer containing 10 nM of the FRET acceptor without the SOS1 protein.
A fixed reaction mixture with or without test compound is transferred into a 384-well plate. Ras working solution is added to all wells of the test plate. SOS1 working solution is added to all wells except for those that are subsequently filled the inhibitor control solution. After approximately 60 min incubation, the fluorescence is measured with a M1000Pro plate reader (Tecan) using HTRF detection (excitation 337 nm, emission 1: 620 nm, emission 2: 665 nm). Compounds are tested in duplicates at different concentrations (for example, 10 μM, 2.5 μM, 0.63 μM, 0.16 μM, 0.04 μM, 0.01 μM test compound). The ratiometric data (i.e., emission 2 divided by emission 1) is used to calculate IC50 values against SOS1 using GraphPad Prism (GraphPad software).

[1] = test system: MIA PaCa-2 cells (K-Ras G12C); experiment: Ras-SOS cellular growth inhibition assay (CellTiter-Glo, 3D); format: cell-based
Protocol: MIA PaCa-2 (ATCC CRL-1420) and NCI-H1792 (ATCC CRL-5895) cell lines comprise a G12C mutation can be used to assess Ras cellular signaling in vitro, e.g., in response to a subject compound of the present disclosure. […] Cell culture medium (comprising, for example, MIA PaCa-2 cells) is prepared with DMEM/Ham's F12 (e.g., with stable Glutamine, 10% FCS, and 2.5% Horse Serum. NCI-H1792 culture medium is prepared with RPMI 1640 (e.g., with stable Glutamine) and 10% FCS. A CellTiter-Glo (CTG) luminescent based assay (Promega) is used to assess growth of the cells, as a measurement of the ability of the compounds herein to inhibit Ras signaling in the cells. The cells (e.g., 800-1200 per well) are seeded in their respective culture medium in standard tissue culture-treated ultra-low attachment surface 96-well format plates (Corning Costar #3474). The day after plating, cells are treated with a dilution series (e.g., a 9 point 3-fold dilution series) of the compounds herein (e.g., approximately 125 μl final volume per well). Cell viability can be monitored (e.g., approximately 5 days later) according to the manufacturer's recommended instructions, where the CellTiter-Glo reagent is added (e.g., approximately 65 μl), vigorously mixed, covered, and placed on a plate shaker (e.g., approximately for 20 min) to ensure sufficient cell lysis prior to assessment of luminescent signal. The IC50 values are determined using the four-parameter fit. The resulting IC50 value is a measurement of the ability of the compounds herein to reduce cell growth of Ras-driven cells as representative tumor cells.

[2] = test system: NCI-H1975 cells (EGFR T790M L858R); experiment: EGFR-SOS cellular inhibition assay (CellTiter-Glo, 3D); format: cell-based
[3] = K-RasG13D utilized, read-out: IC50 inhibition of SOS
[4] = K-RasG13D, read-out: IC50 value against SOS1
[5] = Homo sapiens, MIA PaCa-2, 120 h, MIA PaCa-2, 3D proliferation, about 5 days, read-out: Bio-Cell-Prolif-3D (MiaPaca2 IC50)
[6] = Homo sapiens, MIA PaCa-2, MIA PaCa-2, read-out: IC50 in inhibiting MIA PaCa-2 cell growth
[7] = Homo sapiens, 120 h, NCI-H1975, 3D proliferation, about 5 days, read-out: Bio-Cell-Prolif-3D (H1975 IC50)
[8] = Homo sapiens, NCI-H1975, EGFR T790M L858R, read-out: IC50 in inhibiting growth of NCI-H1975 cell line

SOS1, sequence (Q07889 564-1049): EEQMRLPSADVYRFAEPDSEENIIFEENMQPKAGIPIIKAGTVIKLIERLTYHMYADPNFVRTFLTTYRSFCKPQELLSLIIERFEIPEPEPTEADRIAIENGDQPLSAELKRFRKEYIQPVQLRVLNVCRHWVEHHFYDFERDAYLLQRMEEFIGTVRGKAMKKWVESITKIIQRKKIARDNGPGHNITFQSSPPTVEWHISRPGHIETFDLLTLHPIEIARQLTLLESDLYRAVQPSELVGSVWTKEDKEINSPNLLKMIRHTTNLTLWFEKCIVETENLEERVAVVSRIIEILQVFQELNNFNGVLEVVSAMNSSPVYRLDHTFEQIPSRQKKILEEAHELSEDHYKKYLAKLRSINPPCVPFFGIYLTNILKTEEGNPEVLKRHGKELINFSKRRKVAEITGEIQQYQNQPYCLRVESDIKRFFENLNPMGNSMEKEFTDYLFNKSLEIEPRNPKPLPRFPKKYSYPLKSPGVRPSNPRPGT

| IC50 (SOS1; [3]) [nM] | IC50 (SOS1; [4]) [nM] | IC50 [1, 5] [nM] | IC50 [1, 6] [nM] | IC50 [2, 7] [nM] | IC50 [2, 8] [nM] | IC50 ([1]; MIA PaCa-2, 3D proliferation, about 5 days, read-out: Bio-Cell-Prolif-3D (MiaPaca2 IC50)) [nM] | IC50 ([1]; MIA PaCa-2, read-out: IC50 in inhibiting MIA PaCa-2 cell growth) [nM] | IC50 ([2]; NCI-H1975, 3D proliferation, about 5 days, read-out: Bio-Cell-Prolif-3D (H1975 IC50)) [nM] | IC50 ([2]; NCI-H1975, EGFR T790M L858R, read-out: IC50 in inhibiting growth of NCI-H1975 cell line) [nM] | Compound |
| --- | --- | --- | --- | --- | --- | --- | --- | --- | --- | --- |
| < 100 | < 50 | ≤ 1000 | < 500 | ≤ 1000 | < 500 | – | – | – | – | COc1nc2nc(C)nc(N[C@H](C)c3cccc(C(F)(F)C(C)(C)OC4CN(C(C)C)C4)c3F)c2cc1N1CCN(C(C)C)CC1 [Compound 242, (R)-N-(1-(3-(1,1-difluoro-2-((1-isopropylazetidin-3-yl)oxy)-2-methylpropyl)-2-fluorophenyl)ethyl)-6-(4-isopropylpiperazin-1-yl)-7-methoxy-2-methylpyrido[2,3-d]pyrimidin-4-amine] |
| < 100 | < 50 | ≤ 1000 | < 500 | ≤ 1000 | < 500 | – | – | – | – | CCN1CCN(c2cc3c(N[C@H](C)c4cccc(C(F)(F)F)c4F)ncnc3nc2OC)CC1 [Compound 196, (R)-6-(4-ethylpiperazin-1-yl)-N-(1-(2-fluoro-3-(trifluoromethyl)phenyl)ethyl)-7-methoxypyrido[2,3-d]pyrimidin-4-amine] |
| < 100 | < 50 | 1000 to 10000 | – | ≤ 1000 | < 500 | – | – | – | – | Cc1nc(N[C@H](C)c2cccc(C(F)F)c2F)c2cc(N3CCN(C(C)C)CC3)c(OC3CNC3)nc2n1 [Compound 367, (R)-7-(azetidin-3-yloxy)-N-(1-(3-(difluoromethyl)-2-fluorophenyl)ethyl)-6-(4-isopropylpiperazin-1-yl)-2-methylpyrido[2,3-d]pyrimidin-4-amine] |
| < 100 | < 50 | ≤ 1000 | < 500 | ≤ 1000 | < 500 | – | – | – | – | COc1nc2ncnc(N[C@H](C)c3cccc(C(F)(F)C4CCN(C(C)C)CC4)c3F)c2cc1C1CCN(C(C)C)CC1 [Compound 221, (R)-N-(1-(3-(difluoro(1-isopropylpiperidin-4-yl)methyl)-2-fluorophenyl)ethyl)-6-(1-isopropylpiperidin-4-yl)-7-methoxypyrido[2,3-d] pyrimidin-4-amine] |
| < 100 | < 50 | ≤ 1000 | < 500 | ≤ 1000 | < 500 | – | – | – | – | Cc1c([C@@H](C)Nc2ncnc3nc(Cl)c(C4CCS(=O)(=O)CC4)cc23)cccc1C(F)(F)F [Compound 260, (R)-4-(7-chloro-4-((1-(2-methyl-3-(trifluoromethyl)phenyl)ethyl)amino)pyrido[2,3-d]pyrimidin-6-yl)tetrahydro-2H-thiopyran 1,1-dioxide] |
| < 100 | < 50 | ≤ 1000 | < 500 | ≤ 1000 | < 500 | – | – | – | – | COc1nc2nc(C)nc(N[C@H](C)c3cccc(C(F)(F)F)c3F)c2cc1N1CCN(C)CC1 [Compound 349, (R)-N-(1-(2-fluoro-3-(trifluoromethyl)phenyl)ethyl)-7-methoxy-2-methyl-6-(4-methylpiperazin-1-yl)pyrido[2,3-d]pyrimidin-4-amine] |
| < 100 | < 50 | – | < 500 | – | – | – | – | – | – | COc1nc2nc(C)nc(N[C@H](C)c3cccc(C(F)(F)F)c3C)c2cc1C1CCN(C)CC1 [Compound 380, (R)-7-methoxy-2-methyl-N-(1-(2-methyl-3-(trifluoromethyl)phenyl)ethyl)-6-(1-methylpiperidin-4-yl)pyrido[2,3-d] pyrimidin-4-amine] |
| – | – | ≤ 1000 | – | ≤ 1000 | – | – | – | – | – | Cc1nc(N[C@H](C)c2cccc(C(F)F)c2F)c2cc(C3CCN(C)CC3)c(OCCN(C)C)nc2n1 [Compound 155] |
| – | – | ≤ 1000 | < 500 | ≤ 1000 | < 500 | – | – | – | – | COc1nc2nc(C)nc(N[C@H](C)c3cccc(C(F)(F)C4CCN(C)CC4)c3F)c2cc1N1CCN(C(C)C)CC1 [Compound 182, (R)-N-(1-(3-(difluoro(1-methylpiperidin-4-yl)methyl)-2-fluorophenyl)ethyl)-6-(4-isopropylpiperazin-1-yl)-7-methoxy-2-methylpyrido[2,3-d]pyrimidin-4-amine] |
| – | – | – | – | – | – | ≤ 1000 | < 500 | ≤ 1000 | < 500 | (R)-4-(4-((1-(3-(2-(2-(dimethylamino)ethoxy)-1,1-difluoroethyl)-2-fluorophenyl)ethyl)amino)-7-methoxy-2-methylpyrido[2,3-d]pyrimidin-6-yl)tetrahydro-2H-thiopyran 1,1-dioxide [Compound 271] |
| – | – | ≤ 1000 | < 500 | ≤ 1000 | < 500 | – | – | – | – | COc1nc2nc(C)nc(N[C@H](C)c3cccc(C(F)(F)C4CCN(C(C)C)CC4)c3F)c2cc1C1(C#N)CC1 [Compound 377, (R)-1-(4-((1-(3-(difluoro(1-isopropylpiperidin-4-yl)methyl)-2-fluorophenyl)ethyl)amino)-7-methoxy-2-methylpyrido[2,3-d]pyrimidin-6-yl)cyclopropane-1-carbonitrile] |
| 100 to 1000 | – | – | – | – | – | – | – | – | – | Cc1nc(N[C@H](C)c2cccc(C(F)F)c2F)c2cc(C3(C#N)CC3)c(NCC(C)(C)O)nc2n1 [Compound 319, (R)-1-(4-((1-(3-(difluoromethyl)-2-fluorophenyl)ethyl)amino)-7-((2-hydroxy-2-methylpropyl)amino)-2-methylpyrido[2,3-d]pyrimidin-6-yl) cyclopropane-1-carbonitrile] |
| < 100 | < 50 | – | – | – | – | – | – | – | – | COc1nc2nc(C)nc(N[C@H](C)c3cccc(C(F)(F)F)c3F)c2cc1N1CCN(C(=O)[C@@H]2COCCO2)CC1 [Compound 382, ((S)-1,4-dioxan-2-yl)(4-(4-(((R)-1-(2-fluoro-3-(trifluoromethyl)phenyl)ethyl)amino)-7-methoxy-2-methylpyrido[2,3-d]pyrimidin-6-yl)piperazin-1-yl)methanone] |
| < 100 | < 50 | – | – | – | – | – | – | – | – | Cc1nc(N[C@H](C)c2cccc(C(F)F)c2F)c2cc(N3CCN(C(C)C)CC3)c(NC3CNC3)nc2n1 [Compound 357, (R)-N7-(azetidin-3-yl)-N4-(1-(3-(difluoromethyl)-2-fluorophenyl)ethyl)-6-(4-isopropylpiperazin-1-yl)-2-methylpyrido[2,3-d]pyrimidine-4,7-diamine] |

| Compound | IC50 (SOS1; [3]) [nM] | IC50 (SOS1; [4]) [nM] | IC50 [1, 5] [nM] | IC50 [1, 6] [nM] | IC50 [2, 7] [nM] | IC50 [2, 8] [nM] | IC50 ([1]; MIA PaCa-2, 3D proliferation, about 5 days, read-out: Bio-Cell-Prolif-3D (MiaPaca2 IC50)) [nM] | IC50 ([1]; MIA PaCa-2, read-out: IC50 in inhibiting MIA PaCa-2 cell growth) [nM] | IC50 ([2]; NCI-H1975, 3D proliferation, about 5 days, read-out: Bio-Cell-Prolif-3D (H1975 IC50)) [nM] | IC50 ([2]; NCI-H1975, EGFR T790M L858R, read-out: IC50 in inhibiting growth of NCI-H1975 cell line) [nM] |
| --- | --- | --- | --- | --- | --- | --- | --- | --- | --- | --- |
| COc1nc2nc(C)nc(N[C@H](C)c3cccc(C(F)(F)F)c3C)c2cc1C1(C#N)CCN(C(C)C)CC1 [Compound 285, (R)-1-isopropyl-4-(7-methoxy-2-methyl-4-((1-(2-methyl-3-(trifluoromethyl)phenyl)ethyl)amino)pyrido[2,3-d]pyrimidin-6-yl)piperidine-4-carbonitrile] | < 100 | < 50 | 1000 to 10000 | – | ≤ 1000 | – | – | – | – | – |
